In patent US10640430B2, “Fertilizer capsule comprising one or more cores and method of making same” (SAUDI BASIC INDUSTRIES CORPORATION, priority 2014, dated 2020):
Entries after “also recorded” stand apart in the source; their conditions may differ.

What was measured:
[1] = cited from earlier work
[2] = Stability of inhibitors in extrudates in urea melt (HPLC, LCMS); type: physicochemical; conditions: urea melt conditions
Procedure: Representative procedure for checking the Inhibitor stability in urea melt: The extrudate (1.0 g) was added to a vial containing urea melt (3.0 g) and it was left at the same temperature for one minute. The Vial was then cooled to room temperature and diluted with 5.0 ml of water (milli-Q water). The water was decanted and the same process was repeated twice, to remove most of the urea. Finally, water (5.0 ml) was added to the extrudate and left for 4 h before submitting the samples for HPLC analysis.
Stability of inhibitors in urea melt: Extrudates containing inhibitors were tested for their stability in urea melt using HPLC and LCMS.
Extrudates containing NBTPT/DCD were dipped in urea melt in order to check the stability of the extrudates. Two types of studies were performed, 1) to check the deformation ability of extrudate in urea melt; and 2) to check the stability of inhibitors. Castor wax extrudates with and without inhibitors sustain the urea melt conditions under 5 seconds but inhibitors (NBTPT and DCD) were stable under these conditions. Bleached wheat flour containing extrudates sustained the urea melt temperature (133-135° C.). High melt waxes are taken in to consideration in order to mitigate the problem of possible deformation of wax extrudates when exposed to urea melt. The extrudates of high melt waxes were exposed to urea melt. […] The stability of NBTPT and DCD under urea melt temperature were analyzed and confirmed by HPLC and LCMS.

[3] = Thermal stability of neat NBTPT and NBTPT within a core at 133-135° C. by HPLC; type: physicochemical; conditions: exposed to 133-135° C. (urea melt temperature), up to 30 min
Procedure: The thermal stability of neat NBTPT and NBTPT contained within a core, as disclosed herein, can be determined by HPLC. For example, neat NBTPT or a core containing NBTPT can be exposed to 135° C. (133-135° C. is the typical temperature range of a urea melt) and can continuously be analyzed by HPLC every 5 min. Such data will determine how whether the NBTPT has better thermal stability when contained within a core, as compared to neat NBTPT.
The thermal stability of neat NBTPT and NBTPT within a core was determined by HPLC. The core for this example contained 58.8 wt % PoP, 39.2 wt % bleached wheat flour, and 2.0 wt % NBTPT. Both neat NBTPT and NBTPT within a core were exposed to 133-135° C., which is the typical urea melt temperature. […] The data indicates the core protects fertilizer additive materials, such as an inhibitor, from degradation during manufacturing conditions, including the expose of temperatures associated with a urea melt. The thermal stability of materials, such as an inhibitor is critical for its good performance (inhibition) in the soil. The intended function of a material, such as an inhibitor, can be lost if the material degrades when exposed to high temperatures during the manufacturing process.

[4] = Stability of NBTPT during oven drying of water containing extrudates; type: physicochemical; conditions: extrudates dried in oven at 120° C. overnight
Source text: Optimized formulations from the DACA were successfully extruded in the pilot scale extruder in 300 g scale. 100% bleached wheat flour was also extruded with 10-20% water which was not done in DACA.

[5] = bleached wheat flour extrudate containing the inhibitor
[6] = castor wax extrudate containing the inhibitor

SMILES | Thermal stability in the soil ([1]; hot climatic region, soil) | Degradation of inhibitor in HPLC [2, 5] | Degradation of inhibitor in HPLC [2, 6] | Thermal stability (decomposition by HPLC) ([3]; listed as Neat NBTPT) | Thermal stability (decomposition by HPLC) ([3]; listed as neat NBTPT) | Stability of NBTPT on drying [4] | Stability under acidic pH ([1]; acidic pH)
N#CN=C(N)N [DCD, dicyandiamide] | thermal instability | no degradation | stable; also recorded: no degradation |  |  |  | 
CCCCNP(N)(N)=S [NBTPT, N-(n-butyl) thiophosphoric triamide] |  | no degradation | stable; also recorded: no degradation | significant degradation | decomposes | stable | unstable
